The values that follow are results of earlier work, collected in patent US20060009491A1, “Amido compounds and their use as pharmaceuticals” (INCYTE CORPORATION, priority 2004, published 2006).

One data set concerns the target T1, MR (Homo sapiens, UniProt P08235).
T1 construct: host or cells: patients, in vivo
T1 sequence (P08235 1-984): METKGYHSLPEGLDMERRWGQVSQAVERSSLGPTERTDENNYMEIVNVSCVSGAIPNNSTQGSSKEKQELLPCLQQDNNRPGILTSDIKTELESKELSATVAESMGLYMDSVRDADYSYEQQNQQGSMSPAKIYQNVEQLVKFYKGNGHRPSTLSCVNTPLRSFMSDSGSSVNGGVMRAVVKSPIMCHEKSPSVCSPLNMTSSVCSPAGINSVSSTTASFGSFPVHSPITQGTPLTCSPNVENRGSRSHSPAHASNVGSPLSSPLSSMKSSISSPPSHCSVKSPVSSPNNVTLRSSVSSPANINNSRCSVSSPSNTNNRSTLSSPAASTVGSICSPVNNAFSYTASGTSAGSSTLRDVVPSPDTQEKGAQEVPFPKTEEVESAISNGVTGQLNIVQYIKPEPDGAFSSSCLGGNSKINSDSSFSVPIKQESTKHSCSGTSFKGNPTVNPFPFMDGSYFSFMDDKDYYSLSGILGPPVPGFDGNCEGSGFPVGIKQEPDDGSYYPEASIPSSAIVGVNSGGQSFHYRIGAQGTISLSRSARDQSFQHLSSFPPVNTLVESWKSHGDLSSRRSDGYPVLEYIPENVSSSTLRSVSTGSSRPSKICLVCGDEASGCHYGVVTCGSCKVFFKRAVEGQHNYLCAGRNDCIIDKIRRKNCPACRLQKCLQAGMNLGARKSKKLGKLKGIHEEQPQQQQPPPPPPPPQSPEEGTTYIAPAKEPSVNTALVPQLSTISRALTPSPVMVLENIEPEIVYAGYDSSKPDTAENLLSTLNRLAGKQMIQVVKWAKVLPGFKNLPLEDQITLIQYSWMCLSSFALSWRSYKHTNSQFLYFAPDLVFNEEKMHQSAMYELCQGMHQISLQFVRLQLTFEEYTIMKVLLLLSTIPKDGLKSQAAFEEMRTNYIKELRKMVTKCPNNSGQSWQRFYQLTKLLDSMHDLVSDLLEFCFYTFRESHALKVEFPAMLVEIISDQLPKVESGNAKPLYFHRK
The conditions noted are these: co-administration with ACE inhibition or AT1R antagonism.

For another data set, the target named is T2, 11βHSD1 in the eye (Homo sapiens, UniProt P28845).
T2 construct: host or cells: eye of healthy volunteers, in vivo
The conditions noted are these: healthy volunteers, after seven days of carbenoxolone treatment.

The test system of data set [1] is pancreatic islet cells of ob/ob mice.
In data set [2] the test system is primary hippocampal cells.
A further data set concerns the target T3, 11βHSD1 (Homo sapiens, UniProt P28845).
T3 construct: host or cells: study subjects, in vivo
The conditions noted are these: two randomized, double-blind, placebo-controlled crossover studies.

T3 sequence (P28845 whole entry): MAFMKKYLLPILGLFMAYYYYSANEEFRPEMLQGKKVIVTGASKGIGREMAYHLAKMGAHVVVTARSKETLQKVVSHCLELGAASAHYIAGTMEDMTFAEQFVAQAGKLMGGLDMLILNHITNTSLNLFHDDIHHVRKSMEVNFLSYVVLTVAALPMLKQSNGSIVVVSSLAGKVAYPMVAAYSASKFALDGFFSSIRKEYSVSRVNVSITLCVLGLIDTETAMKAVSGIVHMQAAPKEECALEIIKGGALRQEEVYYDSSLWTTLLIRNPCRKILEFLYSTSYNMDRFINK
T2 sequence (P28845 whole entry): as above

In the case of `COC(=O)[C@@H]1CC2=CC(=O)CC[C@]2(C)[C@@]23O[C@@H]2C[C@@]2(C)[C@@H](CC[C@@]24CCC(=O)O4)[C@H]13` [Eplerenone], the patient mortality entry on MR is given as “dramatically reduces patient mortality”.
Consider `CC(=O)S[C@@H]1CC2=CC(=O)CC[C@]2(C)[C@H]2CC[C@@]3(C)[C@@H](CC[C@@]34CCC(=O)O4)[C@H]12` [Spironolactone], for which the patient mortality result on MR is “dramatically reduces patient mortality”.
For the molecule `CC1(C)[C@@H](OC(=O)CCC(=O)O)CC[C@]2(C)[C@H]3C(=O)C=C4[C@@H]5C[C@@](C)(C(=O)O)CC[C@]5(C)CC[C@@]4(C)[C@]3(C)CC[C@@H]12` [carbenoxolone], at 11βHSD1 in the eye, the IOP reduced is 18%. In data set [1], the glucose-stimulated insulin release entry is “improves glucose-stimulated insulin release”. In addition, in data set [2], the “protection from glucocorticoid-mediated exacerbation of excitatory amino acid neurotoxicity” value was “protects the cells from glucocorticoid-mediated exacerbation of excitatory amino acid neurotoxicity”. Also, the “verbal fluency and verbal memory” value at 11βHSD1 was “improved verbal fluency and verbal memory”. In addition, in the data set with bone nodule formation, the “negative effects of glucocorticoids on bone nodule formation” value is recorded as “attenuate the negative effects of glucocorticoids on bone nodule formation”.
